Series [1] can be described thus: pharmokinetic study, IV and oral. It is filed as in vivo, mice. Particulars: for AUC(0-inf) / Cmax / Tmax / half-life: mouse, plasma; for half-life: read-out: t½ (converted). The method, then: This example characterized ILY-4001 [2-(3-(2-amino-2-oxoacetyl)-1-(biphenyl-2-ylmethyl)-2-methyl-1H-indol-4-yloxy)acetic acid], alternatively referred to herein as methyl indoxam, with respect to activity, as determined by IC50 assay (Example 1B-1), with respect to cell absorbtion, as determined by in-vitro Caco-2 assay (Example 1B-2) and with respect to bioavailability, as determined using in-vivo mice studies (Example 1B-3).
Bioavailability was calculated as a ratio of AUC-oral/AUC-intravenous (IV). To determine this ratio, a first set of subject animals were given a measured intravenous (IV) dose of ILY-4001, followed by a determination of ILY-4001 levels in the blood at various time points after administration (e.g., 5 minutes through 24 hours). Another second set of animals was similarly dosed using oral administration, with blood levels of ILY-4001 determined at various time points after administration (e.g., 30 minutes through 24 hours). The level of ILY-4001 in systemic circulation were determined by generally accepted methods (for example as described in Evans, G., A Handbook of Bioanalysis and Drug Metabolism. Boca Raton, CRC Press (2004)). Specifically, […]/mass spectrometry/mass spectrometry (LC/MS/MS) analytical methods were used to quantitate plasma concentrations of ILY-4001 after oral and intravenous administration. Pharmacokinetic parameters that were measured include Cmax, AUC, tmax, t1/2, and F (bioavailability).
In this procedure, ILY-4001 was dosed at 3 mg/kg IV and 30 mg/kg oral. […] This indicated about a 72% level of non-absorption of ILY-4001 from the GI tract into systemic circulation.

The nature of series [2]: in-vivo study on high fat/high sucrose diabetogenic diet (Example 10). The settings on record: for fasting glucose levels: low dose 25 mg/kg/day. Further details: species or system C57BL/6 mice. On the procedure:
ILY-4001 (FIG. 5) was evaluated as a PLA2 IB inhibitor in a set of experiments using wild-type mice and genetically deficient PLA2 (−/−) mice (also referred to herein as PLA2 knock-out (KO) mice). In these experiments, wild-type and PLA2 (−/−) mice were maintained on a high fat/high sucrose diet, details of which are described below.
Briefly, four groups were set up, each having six mice. Three of the groups included six wild-type PLA2 (+/+) mice in each group (eighteen mice total), and one of the groups included six genetically deficient PLA2 (−/−) mice. One of the wild-type groups was used as a wild-type control group, and was not treated with ILY-4001. The other two wild-type groups were treated with ILY-4001—one group at a lower dose (indicated as “L” in Table 1) of 25 mg/kg/day, and the other at a higher dose (indicated as “H” in Table 1) of 90 mg/kg/day. The group comprising the PLA2 (−/−) mice was used as a positive control group.
The experimental protocol used in this study was as follows. The four groups of mice, including wild type and isogenic PLA2 (−/−) C57BL/J mice were acclimated for three days on a low fat/low carbohydrate diet. After the three day acclimation phase, the animals were fasted overnight and serum samples taken to establish baseline plasma cholesterol, triglyceride, and glucose levels, along with baseline body weight. The mice in each of the treatment groups were then fed a high fat/high sucrose diabetogenic diet (Research Diets D12331). 1000 g of the high fat/high sucrose D12331 diet was composed of casein (228 g), DL-methionine (2 g), maltodextrin 10 (170 g), sucrose (175 g), soybean oil (25 g), hydrogenated coconut oil (333.5 g), mineral mix S10001 (40 g), sodium bicarbonate (10.5 g), potassium citrate (4 g), vitamin mix V10001 (10 g), and choline bitartrate (2 g). This diet was supplemented with ILY-4001 treatments such that the average daily dose of the compound ingested by a 25 g mouse was: 0 mg/kg/day (wild-type control group and PLA2 (−/−) control group); 25 mg/kg/day (low-dose wild-type treatment group), or 90 mg/kg/day (high-dose wild-type treatment group). The animals were maintained on the high fat/high sucrose diet, with the designated ILY-4001 supplementation, for a period of ten weeks.
Body weight measurements were taken for all animals in all treatment and control groups at the beginning of the treatment period and at 4 weeks and 10 weeks after initiation of the study. (See Example 10A). Blood draws were also taken at the beginning of the treatment period (baseline) and at 4 weeks and 10 weeks after initiation of the study, in order to determine fasting glucose (See Example 10B). Cholesterol and triglyceride levels were determined from blood draws taken at the beginning of the treatment (baseline) and at ten weeks. (See Example 10C).

The next series deals with T1, Porcine PLA2 IB (Sus scrofa, UniProt P00592).
T1 construct: purchased
Put plainly: continuous fluorimetric assay for PLA2 activity (PPyrPG vesicles). Particulars: 37° C. It counts as biochemical. The text has this:
A continuous fluorimetric assay for PLA2 activity described in the literature was used to determine IC (Leslie, C C and Gelb, M H (2004) Methods in Molecular Biology “Assaying phospholipase A2 activity”, 284: 229-242, Singer, A G, et al. (2002) Journal of Biological Chemistry “Interfacial kinetic and binding properties of the complete set of human and mouse groups I, II, V, X, and XII secreted phospholipases A2”, 277: 48535-48549, Bezzine, S, et al. (2000) Journal of Biological Chemistry “Exogenously added human group X secreted phospholipase A(2) but not the group IB, IIA, and V enzymes efficiently release arachidonic acid from adherent mammalian cells”, 275: 3179-3191) and references therein.
Generally, this assay used a phosphatidylglycerol (or phosphatidylmethanol) substrate with a pyrene fluorophore on the terminal end of the sn-2 fatty acyl chain. […] The effect of a given inhibitor and inhibitor concentration on any given phospholipase can be determined. […]
In this example, the procedure was performed as follows: • 1. […] The fluorescence was read using an excitation of 342 nm and an emission of 395 nm.
In this example, the IC50 was calculated using the BioDataFit 1.02 (Four Parameter Model) software package. […]

Series [3] deals with Caco-2 monolayers. Put plainly: Caco-2 permeability study. Particulars: apical to basolateral.
A further series has as its system PL A2. Particulars: cited from earlier work.
For series [4], the system named is Caco-2 monolayers.
Where [5] appears, read: low and high doses (25 and 90 mg/kg/day), 10 weeks.

The text below walks through data of patent US20070292385A1, “Phospholipase Inhibitors Localized in the Gastrointestinal Lumen” (priority 2004, published 2007).

Usually AUC(0-inf) stands for the area under the concentration-time curve extrapolated to infinity. Read a high AUC(0-inf) as high exposure. The term Cmax denotes the maximum level reached in the sampled fluid or tissue. For orientation: Tmax means the time from dosing to the highest level. A word on the IC50: it is the concentration at which inhibition is half-maximal.

Where two headings read alike, the source gives them in different places.

T1 sequence (P00592 23-146): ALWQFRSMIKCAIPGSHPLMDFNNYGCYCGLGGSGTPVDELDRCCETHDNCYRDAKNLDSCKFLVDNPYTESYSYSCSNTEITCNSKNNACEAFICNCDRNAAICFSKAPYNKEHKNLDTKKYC

As to `Cc1c(C(=O)C(N)=O)c2c(OCC(=O)O)cccc2n1Cc1ccccc1-c1ccccc1` [ILY-4001, 2-(3-(2-amino-2-oxoacetyl)-1-(biphenyl-2-ylmethyl)-2-methyl-1H-indol-4-yloxy)acetic acid], in series [1] (iv, 3 mg/kg), the total exposure AUC(0-inf) was found to be 2760 ng·h/mL, the highest level (Cmax) was 3170 ng/mL, the Tmax stood at 0.083 h and the half-life was 1.03 h. Besides, the AUC(0-t) in series [1] (mouse, plasma, iv, 3 mg/kg; read-out: AUC 0-24)) is 2790 ng·h/mL. Besides, in series [1] (oral, 30 mg/kg), the area under the curve AUC(0-inf) was found to be 5730 ng·h/mL, the peak concentration (Cmax) amounted to 2290 ng/mL, the Tmax turned out to be 1 h and the half-life was 1.25 h. In series [1] (mouse, plasma; oral, 30 mg/kg; read-out: AUC 0-24)), the AUC(0-t) was 5950 ng·h/mL. Further, the “body weight gain compared to wild-type control group” value in series [2] (25 mg/kg/d and 90 mg/kg/d in diet, week 4 and week 10) is reported as “significantly reduced”. Also, in series [2] (setting [5]), the “plasma levels of cholesterol” value was “substantially reduced” and the “plasma levels of triglycerides” value is reported as “substantially reduced”. The fasting glucose levels entry in series [2] (week four) is given as “moderately beneficial effect”. The fasting glucose levels entry in series [2] (week ten) is listed as “beneficial effect was not observed”. The compound further had an IC50 against Porcine PLA2 IB of 62 nM. In addition, the apparent permeability entry in the series with Caco-2 monolayers [3] is “around 1.66×10^−7 cm/s”.

With `CCC1=C(CC(N)=O)c2cc(OCCCP(=O)(O)O)ccc2C1Nc1ccccc1` (stereo not shown), in the series with PL A2, the 50% inhibitory concentration (IC50) entry is reported as “sub μM range”.

Lucifer Yellow: in the series on Caco-2 monolayers [4], the apparent permeability entry is “around 2.82×10^−7+/−0.37×10^−7 cm/s”.
